Experimental data reported in ChEMBL document CHEMBL1131862, “Synthesis and anti-HIV activity of arylpiperazinyl fluoroquinolones: a new class of anti-HIV agents” (Bioorg Med Chem Lett, 1999).

Assays:
[1] = system: Human immunodeficiency virus 1; assay: Cytotoxicity to HIV-1 IIIB chronically infected Molt-4 cells assayed using tetrazolium based colorimetric assay; assay type: functional; conditions: Human immunodeficiency virus 1, MOLT-4
[2] = system: Human immunodeficiency virus 1; assay: Anti-HIV activity against HIV-1 IIIB chronically infected Molt-4 cells; assay type: functional, organism-based; conditions: Human immunodeficiency virus 1, MOLT-4
MOLT-4 = assay: Anti-HIV activity against HIV-1 IIIB chronically infected Molt-4 cells; Not active; assay type: functional, cell-based, Homo sapiens

IC50 [2] [µM] | IC50 (MOLT-4) | Structure (SMILES) | CC50 [1] [µM]
> 60 |  | O=C(O)c1cn(C2CC2)c2c(OC(F)F)c(N3CCNCC3)c(F)cc2c1=O | > 60
0.26 |  | COc1ccccc1N1CCN(c2c(F)cc3c(=O)c(C(=O)O)cn(CCO)c3c2OC(F)F)CC1 | 26
0.1 |  | COc1ccccc1N1CCN(c2c(F)cc3c(=O)c(C(=O)O)cn(C(C)C)c3c2OC(F)F)CC1 | 8.9
0.094 |  | CCn1cc(C(=O)O)c(=O)c2cc(F)c(N3CCN(c4ccccc4OC)CC3)c(OC(F)F)c21 | 13
0.5 |  | CNn1cc(C(=O)O)c(=O)c2cc(F)c(N3CCN(c4ncccn4)CC3)c(OC(F)F)c21 | > 60
0.23 |  | CC(C)n1cc(C(=O)O)c(=O)c2cc(F)c(N3CCN(c4ncccn4)CC3)c(OC(F)F)c21 | 31
3.7 |  | CC1COc2c(N3CCN(c4ccccn4)CC3)c(F)cc3c(=O)c(C(=O)O)cn1c23 (stereo not given) | 39
0.25 |  | O=C(O)c1cn(C2CC2)c2c(OC(F)F)c(N3CCN(c4ccccn4)CC3)c(F)cc2c1=O | 15
5.6 |  | COc1ccccc1N1CCN(c2c(F)cc3c(=O)c(C(=O)O)cn(CCN(C)C)c3c2OC(F)F)CC1 | > 55
0.14 |  | Cn1cc(C(=O)O)c(=O)c2cc(F)c(N3CCN(c4ncccn4)CC3)c(OC(F)F)c21 | 38
0.7 |  | COc1cccc(N2CCN(c3c(F)cc4c(=O)c(C(=O)O)cn(C5CC5)c4c3OC(F)F)CC2)c1 | 22
0.97 |  | O=C(O)c1cn(C2CC2)c2c(OC(F)F)c(N3CCN(c4ncccn4)CC3)c(F)cc2c1=O | > 40
 | Not Active | O=C(O)c1cn(C2CC2)c2c(OC(F)F)c(N3CCN(Cc4ccccc4)CC3)c(F)cc2c1=O | 23
0.063 |  | O=C(O)c1cn(C2CC2)c2c(OC(F)F)c(N3CCN(c4ccccc4)CC3)c(F)cc2c1=O | 8.4
0.14 |  | COc1ccccc1N1CCN(c2c(F)cc3c(=O)c(C(=O)O)cn(C)c3c2OC(F)F)CC1 | 13
50 |  | O=C(O)c1cn(C2CC2)c2c(F)c(N3CCN(c4ccccn4)CC3)c(F)cc2c1=O | > 50
0.35 |  | CNn1cc(C(=O)O)c(=O)c2cc(F)c(N3CCN(c4ccccc4OC)CC3)c(OC(F)F)c21 | 19
0.059 |  | O=C(O)c1cn(C2CC2)c2c(OC(F)F)c(N3CCN(c4ccc(F)cc4)CC3)c(F)cc2c1=O | 5.7
0.27 |  | COc1ccccc1N1CCN(c2c(F)cc3c(=O)c(C(=O)O)cn(CCF)c3c2OC(F)F)CC1 | 22
> 60 |  | CN1CCN(c2c(F)cc3c(=O)c(C(=O)O)cn(C4CC4)c3c2OC(F)F)CC1 | > 60
0.6 |  | COc1ccc(N2CCN(c3c(F)cc4c(=O)c(C(=O)O)cn(C5CC5)c4c3OC(F)F)CC2)cc1 | 17
0.79 |  | O=C(O)c1cn(CCO)c2c(OC(F)F)c(N3CCN(c4ncccn4)CC3)c(F)cc2c1=O | > 60
0.48 |  | O=C(O)c1cn(C2CC2)c2c(OC(F)F)c(N3CCN(c4ccc(Cl)cc4)CC3)c(F)cc2c1=O | 5.8
> 55 |  | COc1ccccc1N1CCN(c2c(F)cc3c(=O)c(C(=O)O)cn(CC(=O)O)c3c2OC(F)F)CC1 | > 55
1.8 |  | COc1c(N2CCN(c3ccccn3)CC2)c(F)cc2c(=O)c(C(=O)O)cn(C3CC3)c12 | 26
0.1 |  | COc1ccccc1N1CCN(c2c(F)cc3c(=O)c(C(=O)O)cn(CCOC(C)=O)c3c2OC(F)F)CC1 | 11
1.7 |  | O=C(O)c1cn2c3c(c(N4CCN(c5ccccn5)CC4)c(F)cc3c1=O)OCC2CF (stereo not given) | > 60
0.11 |  | COc1ccccc1N1CCN(c2c(F)cc3c(=O)c(C(=O)O)cn(C4CC4)c3c2OC(F)F)CC1 | 9.9
0.93 |  | O=C(O)c1cn(CCF)c2c(OC(F)F)c(N3CCN(c4ncccn4)CC3)c(F)cc2c1=O | > 60
0.41 |  | CCn1cc(C(=O)O)c(=O)c2cc(F)c(N3CCN(c4ncccn4)CC3)c(OC(F)F)c21 | 28
